In patent US11358952B2, “Substituted 4-aminoisoindoline-1,3-dione compounds, compositions thereof, and methods of treatment therewith” (Celgene Corporation, priority 2018, dated 2022):

System: SU-DHL-4 cell line
Experiment: SU-DHL-4 cell proliferation assay (Cell Titer-Glo viability)
Type: cell-based
Conditions: Homo sapiens; cell viability IC50 activity level, DLBCL cell line SU-DHL-4, 120 hours post-treatment; read-out: SU-DHL-4 Act
In short: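 Viability read by ATP luminescence (Cell Titer-Glo) at the start and after 120 h of growth at 37°C in 5% CO2. DLBCL cells were seeded at 500 per well with compound across 0.5 nM–10 μM in 20 points, 0.1% DMSO. A four-parameter sigmoidal fit gave IC50 as 50% of DMSO control.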

| Compound | IC50 [µM] |
| --- | --- |
| Cc1cc(CNc2cccc3c2C(=O)N(C2CCC(=O)NC2=O)C3=O)ccc1CN1CCN(c2ccc(C(N)=O)cn2)CC1 (stereo not drawn) [Cpd 205, 6-(4-(4-((2-(2,6-dioxopiperidin-3-yl)-1,3-dioxoisoindolin-4-ylamino)methyl)-2-methylbenzyl)piperazin-1-yl)nicotinamide] | < 0.2 |
| NC(=O)c1ccc(N2CCN(Cc3ccc(CNc4cccc5c4C(=O)N([C@@H]4CCC(=O)NC4=O)C5=O)c(F)c3)CC2)nc1 [Cpd 206, (R)-6-(4-(4-((2-(2,6-dioxopiperidin-3-yl)-1,3-dioxoisoindolin-4-ylamino)methyl)-3-fluorobenzyl)piperazin-1-yl)nicotinamide] | < 0.2 |
| NC(=O)c1ccc(N2CCN(Cc3ccc(CNc4cccc5c4C(=O)N([C@H]4CCC(=O)NC4=O)C5=O)c(F)c3)CC2)nc1 [Cpd 207, (S)-6-(4-(4-((2-(2,6-dioxopiperidin-3-yl)-1,3-dioxoisoindolin-4-ylamino)methyl)-3-fluorobenzyl)piperazin-1-yl)nicotinamide] | < 0.2 |
| O=C1CC[C@H](N2C(=O)c3cccc(NCc4ccc(CN5CC(N6CCOCC6)C5)cc4F)c3C2=O)C(=O)N1 [Cpd 208, (S)-2-(2,6-dioxopiperidin-3-yl)-4-(2-fluoro-4-((3-morpholinoazetidin-1-yl)methyl)benzylamino)isoindoline-1,3-dione] | < 0.2 |
| O=C1CC[C@@H](N2C(=O)c3cccc(NCc4ccc(CN5CC(N6CCOCC6)C5)cc4F)c3C2=O)C(=O)N1 [Cpd 209, (R)-2-(2,6-dioxopiperidin-3-yl)-4-(2-fluoro-4-((3-morpholinoazetidin-1-yl)methyl)benzylamino)isoindoline-1,3-dione] | < 0.2 |
| O=C1CCC(N2C(=O)c3cccc(NCc4ccc(CN5CCC(N6CCOCC6)CC5)cc4)c3C2=O)C(=O)N1 (stereo not drawn) [Cpd 210, 2-(2,6-dioxopiperidin-3-yl)-4-(4-((4-morpholinopiperidin-1-yl)methyl)benzylamino)isoindoline-1,3-dione] | 0.2 to 0.5 |
| Cc1cc(CNc2cccc3c2C(=O)N(C2CCC(=O)NC2=O)C3=O)ccc1CN1CCC(N2CCOCC2)CC1 (stereo not drawn) [Cpd 211, 2-(2,6-dioxopiperidin-3-yl)-4-(3-methyl-4-((4-morpholinopiperidin-1-yl)methyl)benzylamino)isoindoline-1,3-dione] | 0.2 to 0.5 |
| O=C1CCC(N2C(=O)c3cccc(NCc4ccc(CN5CCC(C6CCOCC6)CC5)cc4)c3C2=O)C(=O)N1 (stereo not drawn) [Cpd 213, 2-(2,6-dioxopiperidin-3-yl)-4-(4-((4-(tetrahydro-2H-pyran-4-yl)piperridin-1-yl)methyl)benzylamino)isoindoline-1,3-dione] | < 0.2 |
| Cc1cc(CNc2cccc3c2C(=O)N(C2CCC(=O)NC2=O)C3=O)ccc1CN1CCC(C2CCOCC2)CC1 (stereo not drawn) [Cpd 214, 2-(2,6-dioxopiperidin-3-yl)-4-(3-methyl-4-((4-(tetrahydro-2H-pyran-4-yl)piperidin-1-yl)methyl)benzylamino)isoindoline-1,3-dione] | < 0.2 |
| O=C1CCC(N2C(=O)c3cccc(NCc4ccc(CN5CCC(C6CCOCC6)CC5)cc4F)c3C2=O)C(=O)N1 (stereo not drawn) [Cpd 215, 2-(2,6-dioxopiperidin-3-yl)-4-(2-fluoro-4-((4-(tetrahydro-2H-pyran-4-yl)piperidin-1-yl)methyl)benzylamino)isoindoline-1,3-dione] | < 0.2 |
| O=C1CCC(N2C(=O)c3cccc(NCc4ccc(CN5CC(N6CCCC6)C5)cc4)c3C2=O)C(=O)N1 (stereo not drawn) [Cpd 216, 2-(2,6-dioxopiperidin-3-yl)-4-(4-((3-(pyrrolidin-1-yl)azetidin-1-yl)methyl)benzylamino)isoindoline-1,3-dione] | < 0.2 |
| Cc1cc(CNc2cccc3c2C(=O)N(C2CCC(=O)NC2=O)C3=O)ccc1CN1CC(N2CCCC2)C1 (stereo not drawn) [Cpd 217, 2-(2,6-dioxopiperidin-3-yl)-4-(3-methyl-4-((3-(pyrrolidin-1-yl)azetidin-1-yl)methyl)benzylamino)isoindoline-1,3-dione] | < 0.2 |
| O=C1CCC(N2C(=O)c3cccc(NCc4ccc(CN5CC(N6CCCC6)C5)cc4F)c3C2=O)C(=O)N1 (stereo not drawn) [Cpd 218, 2-(2,6-dioxopiperidin-3-yl)-4-(2-fluoro-4-((3-(pyrrolidin-1-yl)azetidin-1-yl)methyl)benzylamino)isoindoline-1,3-dione] | < 0.2 |
| O=C1CCC(N2C(=O)c3cccc(NCc4ccc(CN5CC6(CCOCC6)C5)cc4)c3C2=O)C(=O)N1 (stereo not drawn) [Cpd 219, 4-(4-(7-oxa-2-azaspiro[3.5]nonan-2-ylmethyl)benzylamino)-2-(2,6-dioxopiperidin-3-yl)isoindoline-1,3-dione] | < 0.2 |
| Cc1cc(CNc2cccc3c2C(=O)N(C2CCC(=O)NC2=O)C3=O)ccc1CN1CC2(CCOCC2)C1 (stereo not drawn) [Cpd 220, 4-(4-(7-oxa-2-azaspiro[3.5]nonan-2-ylmethyl)-3-methylbenzylamino)-2-(2,6-dioxopiperidin-3-yl)isoindoline-1,3-dione] | < 0.2 |
| O=C1CCC(N2C(=O)c3cccc(NCc4ccc(CN5CC6(CCOCC6)C5)cc4F)c3C2=O)C(=O)N1 (stereo not drawn) [Cpd 221, 4-(4-(7-oxa-2-azaspiro[3.5]nonan-2-ylmethyl)-2-fluorobenzylamino)-2-(2,6-dioxopiperidin-3-yl)isoindoline-1,3-dione] | < 0.2 |
| C[C@@H]1CN(C2CN(Cc3ccc(CNc4cccc5c4C(=O)N(C4CCC(=O)NC4=O)C5=O)c(F)c3)C2)C[C@H](C)O1 (stereo partly drawn) [Cpd 222, 4-(4-((3-((2R,6S)-2,6-dimethylmorpholino)azetidin-1-yl)methyl)-2-fluorobenzylamino)-2-(2,6-dioxopiperidin-3-yl)isoindoline-1,3-dione] | 0.2 to 0.5 |
| Cc1cc(CNc2cccc3c2C(=O)N(C2CCC(=O)NC2=O)C3=O)ccc1CN1CC(N2CC3CCC(C2)O3)C1 (stereo not drawn) [Cpd 223, 4-(4-((3-(8-oxa-3-azabicyclo[3.2.1]octan-3-yl)azetidin-1-yl)methyl)-3-methylbenzylamino)-2-(2,6-dioxopiperidin-3-yl)isoindoline-1,3-dione] | < 0.2 |
| O=C1CCC(N2C(=O)c3cccc(NCc4ccc(CN5CC(N6CC7CCC(C6)O7)C5)cc4)c3C2=O)C(=O)N1 (stereo not drawn) [Cpd 224, 4-(4-((3-(8-oxa-3-azabicyclo[3.2.1]octan-3-yl)azetidin-1-yl)methyl)benzylamino)-2-(2,6-dioxopiperidin-3-yl)isoindoline-1,3-dione] | < 0.2 |

Second part, the molecule after the results:

| IC50 [µM] | Compound |
| --- | --- |
| < 0.2 | O=C1CCC(N2C(=O)c3cccc(NCc4ccc(CN5CC(N6CC7CCC(C6)O7)C5)cc4F)c3C2=O)C(=O)N1 (stereo not drawn) [Cpd 225, 4-(4-((3-(8-oxa-3-azabicyclo[3.2.1]octan-3-yl)azetidin-1-yl)methyl)-2-fluorobenzylamino)-2-(2,6-dioxopiperidin-3-yl)isoindoline-1,3-dione] |
| 0.2 to 0.5 | O=C1CCC(N2C(=O)c3cccc(NCc4ccc(CN5CC6(COC6)C5)cc4F)c3C2=O)C(=O)N1 (stereo not drawn) [Cpd 226, 4-(4-(2-oxa-6-azaspiro[3.3]heptan-6-ylmethyl)-2-fluorobenzylamino)-2-(2,6-dioxopiperidin-3-yl)isoindoline-1,3-dione] |
| < 0.2 | O=C1CCC(N2C(=O)c3cccc(NCc4ccc(CN5CCC6(COC6)C5)cc4F)c3C2=O)C(=O)N1 (stereo not drawn) [Cpd 227, 4-(4-(2-oxa-6-azaspiro[3.4]octan-6-ylmethyl)-2-fluorobenylamino)-2-(2,6-dioxopiperidin-3-yl)isoindoline-1,3-dione] |
| 0.2 to 0.5 | Cc1cc(CNc2cccc3c2C(=O)N(C2CCC(=O)NC2=O)C3=O)ccc1CN1CC2(COC2)C1 (stereo not drawn) [Cpd 228, 4-(4-(2-oxa-6-aaspiro[3.3]heptan-6-ylmethyl)-3-methylbenzylamino)-2-(2,6-dioxopiperidin-3-yl)isoindoline-1,3-dione] |
| 0.501 to 0.75 | Cc1cc(CNc2cccc3c2C(=O)N(C2CCC(=O)NC2=O)C3=O)ccc1CN1CCC2(COC2)C1 (stereo not drawn) [Cpd 229, 4-(4-(2-oxa-6-azaspiro[3.4]octan-6-ylmethyl)-3-methylbenzylamino)-2-(2,6-dioxopiperidin-3-yl)isoindoline-1,3-dione] |
| < 0.2 | O=C1CCC(N2C(=O)c3cccc(NCc4ccc(CN5CC6(CCCO6)C5)cc4F)c3C2=O)C(=O)N1 (stereo not drawn) [Cpd 230, 4-(4-(5-oxa-2-azaspiro[3.4]octan-2-ylmethyl)-2-fluorobenzylamino)-2-(2,6-dioxopiperidin-3-yl)isoindoline-1,3-dione] |
| < 0.2 | O=C1CCC(N2C(=O)c3cccc(NCc4ccc(CN5CCC6(CCOC6)CC5)cc4F)c3C2=O)C(=O)N1 (stereo not drawn) [Cpd 231, 4-(4-(2-oxa-8-azaspiro[4.5]decan-8-ylmethyl)-2-fluorobenzylamino)-2-(2,6-dioxopiperidin-3-yl)isoindoline-1,3-dione] |
| < 0.2 | Cc1cc(CNc2cccc3c2C(=O)N(C2CCC(=O)NC2=O)C3=O)ccc1CN1CC2(CCCO2)C1 (stereo not drawn) [Cpd 232, 4-(4-(5-oxa-2-azaspiro[3.4]octan-2-ylmethyl)-3-methylbenzylamino)-2-(2,6-dioxopiperidin-3-yl)isoindoline-1,3-dione] |
| < 0.2 | Cc1cc(CNc2cccc3c2C(=O)N(C2CCC(=O)NC2=O)C3=O)ccc1CN1CCC2(CCOC2)CC1 (stereo not drawn) [Cpd 233, 4-(4-(2-oxa-8-azaspiro[4.5]decan-8-ylmethyl)-3-methylbenzylamino)-2-(2,6-dioxopiperidin-3-yl)isoindoline-1,3-dione] |
| < 0.2 | O=C1CCC(N2C(=O)c3cccc(NCc4ccc(CN5CCC6(CCOCC6)CC5)cc4F)c3C2=O)C(=O)N1 (stereo not drawn) [Cpd 234, 4-(4-(3-oxa-9-azaspiro[5.5]undecan-9-ylmethyl)-2-fluorobenzylamino)-2-(2,6-dioxopiperidin-3-yl)isoindoline-1,3-dione] |
| 0.501 to 0.75 | CC1(C)CN(C2CN(Cc3ccc(CNc4cccc5c4C(=O)N(C4CCC(=O)NC4=O)C5=O)cc3)C2)CCO1 (stereo not drawn) [Cpd 235, 4-(4-((3-(2,2-dimethylmorpholino)azetidin-1-yl)methyl)benzylamino)-2-(2,6-dioxopiperidin-3-yl)isoindoline-1,3-dione] |
